Experimental data taken from US12091411B2, “IRAK degraders and uses thereof” (Kymera Therapeutics, Inc., priority 2022, dated 2024).
Where two headings read alike, the source gives them in different places.

Biological target: T1, IRAK4 (Homo sapiens, UniProt Q9NWZ3)
T1 construct: Degradation of IRAK4 in OCI-LY10 was quantitatively measured using Meso Scale Discovery technology; endogenous in cells; host or cells: OCI-LY10
T1 sequence (Q9NWZ3 1-460): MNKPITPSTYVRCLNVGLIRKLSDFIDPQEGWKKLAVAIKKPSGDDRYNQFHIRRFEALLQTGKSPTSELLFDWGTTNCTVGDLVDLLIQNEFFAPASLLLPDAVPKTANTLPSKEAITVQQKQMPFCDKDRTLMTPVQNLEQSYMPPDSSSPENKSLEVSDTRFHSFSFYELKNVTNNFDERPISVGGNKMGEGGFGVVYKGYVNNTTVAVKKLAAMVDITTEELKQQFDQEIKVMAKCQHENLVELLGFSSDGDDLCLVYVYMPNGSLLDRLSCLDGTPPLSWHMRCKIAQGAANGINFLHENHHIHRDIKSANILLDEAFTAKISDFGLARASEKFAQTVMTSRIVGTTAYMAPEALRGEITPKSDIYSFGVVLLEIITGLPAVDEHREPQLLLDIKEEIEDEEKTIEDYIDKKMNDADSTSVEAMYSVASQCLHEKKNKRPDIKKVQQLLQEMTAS
Test: IRAK4 MSD Degradation in OCI-LY10
Assay type: cell-based
Settings: OCI-LY10 cells, MSD
In short: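 OCI-LY10 cells exposed to 8-point 1:3 compound series (top 1 to 10 μM) for 4 to 24 h at 37 °C, 5% CO2. Lysate IRAK4 quantified by MSD sandwich immunoassay. DC50 from three-parameter logistic fit, binned A (<0.01 μM) to D (>0.2 μM or not tested).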

[1] = 4 hrs incubation, read-out: IRAK4 degradation in OCI-LY10 at 4 hrs: DC50
[2] = 24 hrs incubation, read-out: IRAK4 degradation in OCI-LY10 at 24 hrs: DC50

SMILES | DC50 [1] | DC50 [2]
CC1CN(c2ccn3ncc(C(=O)Nc4cn([C@H]5CC[C@H](CN(C)C6CCN(c7cccc8c7n(C)c(=O)n8C7CCC(=O)NC7=O)CC6)CC5)nc4C(F)F)c3n2)CCO1 (some centres unmarked) [I-358] | > 0.2 µM | > 0.2 µM
Cc1nn([C@H]2CC[C@H](CN3CCN(c4ccc5c(c4)n(C)c(=O)n5C4CCC(=O)NC4=O)CC3)CC2)cc1NC(=O)c1cnn2cc(N(C)C)cnc12 (some centres unmarked) [I-217] | > 0.2 µM | > 0.2 µM
COc1nc(NC(=O)c2cccc(C(F)(F)F)n2)cc2cn([C@H]3CC[C@H](CN4CC[C@H](c5cccc6c5n(C)c(=O)n6C5CCC(=O)NC5=O)[C@@H](F)C4)CC3)nc12 (some centres unmarked) [I-774] | > 0.2 µM | > 0.2 µM
Cn1c(=O)n(C2CCC(=O)NC2=O)c2cccc(C#CCOC3CCN(C[C@H]4CC[C@H](n5cc(NC(=O)c6cnn7ccc(N8CC9COCC9C8)nc67)c(C(F)F)n5)CC4)CC3)c21 (some centres unmarked) [I-332] | < 0.01 µM | > 0.2 µM
Cn1c(=O)n(C2CCC(=O)NC2=O)c2cccc(C#CCN3CCN(C[C@H]4CC[C@H](n5cc(NC(=O)c6cnn7ccc([C@@H]8CCOC8)nc67)c(C(F)F)n5)CC4)CC3)c21 (some centres unmarked) [I-353] | > 0.2 µM | > 0.2 µM
CN(C[C@H]1CC[C@H](n2cc(NC(=O)c3cnn4cccnc34)c(C(F)F)n2)CC1)C1CCN(c2ccc3c(c2)n(C)c(=O)n3C2CCC(=O)NC2=O)CC1(F)F (some centres unmarked) [I-481] | > 0.2 µM | > 0.2 µM
CN(C[C@H]1CC[C@H](n2cc(NC(=O)c3cnn4ccc(N5C[C@H]6CC[C@@H](C5)O6)nc34)c(C(F)F)n2)CC1)C1CCN(c2cccc3c2n(C)c(=O)n3C2CCC(=O)NC2=O)CC1 (some centres unmarked) [I-360] | > 0.2 µM | < 0.01 µM
COc1cc2nn([C@H]3CC[C@H](CN4CCC5(CC4)CCN(c4cccc6c4n(C)c(=O)n6C4CCC(=O)NC4=O)CC5)CC3)cc2cc1NC(=O)c1cncc(OC(F)(F)F)c1 (some centres unmarked) [I-147] | 0.1 to 0.2 µM | > 0.2 µM
Cn1c(=O)n(C2CCC(=O)NC2=O)c2cccc(N3CC(C4CCN([C@H]5CC[C@@H](n6cc(NC(=O)c7cnn8ccc(N9C[C@H]%10C[C@@H]9CO%10)nc78)c(C(F)F)n6)CC5)CC4(F)F)C3)c21 (some centres unmarked) [I-760] | > 0.2 µM | > 0.2 µM
Cn1c(=O)n(C2CCC(=O)NC2=O)c2cccc([C@]34C[C@](COC5CCN(C[C@H]6CC[C@H](n7cc(NC(=O)c8cnn9ccc(N%10C[C@H]%11C[C@@H]%10CO%11)nc89)c(C(F)F)n7)CC6)CC5)(C3)C4)c21 (some centres unmarked) [I-3] | < 0.01 µM | > 0.2 µM
Cn1c(=O)n(C2CCC(=O)NC2=O)c2cccc([C@H]3CCN(C[C@H]4CC[C@H](n5cc6cc(NC(=O)c7cccc(C(F)F)n7)ncc6n5)CC4)C[C@@H]3F)c21 (some centres unmarked) [I-642] | > 0.2 µM | > 0.2 µM
CN(CC1(F)CCN(c2cccc3c2n(C)c(=O)n3C2CCC(=O)NC2=O)CC1)C1CCC(n2cc3cc(NC(=O)c4cccc(C(F)(F)F)n4)ccc3n2)CC1 (centres unmarked) [I-788] | > 0.2 µM | > 0.2 µM
CN(C[C@H]1CC[C@H](n2cc(NC(=O)c3cnn4ccc(N5CCO[C@@H](C(F)(F)F)C5)nc34)c(C(F)F)n2)CC1)C1CCN(c2cccc3c2n(C)c(=O)n3C2CCC(=O)NC2=O)CC1(F)F (some centres unmarked) [I-537] | > 0.2 µM | > 0.2 µM
Cn1c(=O)n(C2CCC(=O)NC2=O)c2cccc(C#CCN3C4CCC3CN(C[C@H]3CC[C@H](n5cc(NC(=O)c6cnn7ccc(N8C[C@H]9C[C@@H]8CO9)nc67)c(C(F)F)n5)CC3)C4)c21 (some centres unmarked) [I-343] | > 0.2 µM | < 0.01 µM
Cn1c(=O)n(C2CCC(=O)NC2=O)c2cccc(C#CCN3CCN(C[C@H]4CC[C@H](n5cc(NC(=O)c6cnn7ccc(N8CCN(CC(F)F)CC8)nc67)c(C(F)F)n5)CC4)CC3)c21 (some centres unmarked) [I-409] | > 0.2 µM | > 0.2 µM
COc1ccc2c(c1C#CCO[C@@H]1CCN(C[C@H]3C[C@H](n4cc(NC(=O)c5cnn6ccc(N7C[C@H]8C[C@@H]7CO8)nc56)c(C(F)F)n4)C3)C[C@@H]1F)n(C)c(=O)n2C1CCC(=O)NC1=O (some centres unmarked) [I-54] | < 0.01 µM | > 0.2 µM
C[C@H]1CN(c2ccn3ncc(C(=O)Nc4cn([C@H]5CC[C@H](CN(C)C6CCN(c7cccc8c7n(C)c(=O)n8C7CCC(=O)NC7=O)CC6)CC5)nc4C(F)F)c3n2)CCO1 (some centres unmarked) [I-427] | > 0.2 µM | < 0.01 µM
COc1cc(NC(=O)c2cccc(C(F)(F)F)n2)cc2cn([C@H]3CC[C@H](CN4CCN(c5c(F)ccc6c5n(C)c(=O)n6C5CCC(=O)NC5=O)CC4)CC3)nc12 (some centres unmarked) [I-765] | > 0.2 µM | > 0.2 µM
Cn1c(=O)n(C2CCC(=O)NC2=O)c2cccc(C#CCN3CCN(C[C@H]4CC[C@H](n5cc(NC(=O)c6cnn7ccc(N8CCCCC8(C)C)nc67)c(C(F)F)n5)CC4)CC3)c21 (some centres unmarked) [I-230] | > 0.2 µM | 0.01 to 0.1 µM
Cc1ccc(-c2nn([C@H]3CC[C@H](CN(C)C4CCN(c5cccc6c5n(C)c(=O)n6C5CCC(=O)NC5=O)CC4)CC3)cc2NC(=O)c2cnn3cccnc23)nc1 (some centres unmarked) [I-292] | > 0.2 µM | < 0.01 µM

Further lines, results first:

DC50 [1] | DC50 [2] | SMILES
> 0.2 µM | > 0.2 µM | Cn1c(=O)n(C2CCC(=O)NC2=O)c2cccc(N3CCN(C(=O)C[C@]4(O)CC[C@@H](n5cc(NC(=O)c6cnn7cccnc67)c(C(F)F)n5)CC4)CC3)c21 (some centres unmarked) [I-763]
> 0.2 µM | > 0.2 µM | Cn1c(=O)n(C2CCC(=O)NC2=O)c2cccc(C#CCN3CCN(C[C@H]4CC[C@H](n5cc(NC(=O)c6cnn7ccc(C8COCCN8)nc67)c(C(F)F)n5)CC4)CC3)c21 (some centres unmarked) [I-301]
< 0.01 µM | > 0.2 µM | Cn1c(=O)n(C2CCC(=O)NC2=O)c2cccc(N3CCN(C4CCN([C@H]5CC[C@@H](n6cc(NC(=O)c7cnn8ccc(N9C[C@H]%10C[C@@H]9CO%10)nc78)c(C(F)F)n6)CC5)CC4)CC3)c21 (single isomer, unassigned) [I-425]
< 0.01 µM | < 0.01 µM | C[C@@H]1CN(c2ccn3ncc(C(=O)Nc4cn([C@H]5CC[C@H](CN(C)C6CCN(c7cccc8c7n(C)c(=O)n8C7CCC(=O)NC7=O)CC6)CC5)nc4C(F)F)c3n2)C[C@@H](C)O1 (some centres unmarked) [I-440]
> 0.2 µM | > 0.2 µM | Cn1c(=O)n(C2CCC(=O)NC2=O)c2cccc(C#CCOC3CCN(C[C@H]4CC[C@H](c5cnc(C(F)F)c(NC(=O)c6cnn7ccc(N8C[C@H]9C[C@@H]8CO9)nc67)c5)CC4)CC3)c21 (some centres unmarked) [I-178]
> 0.2 µM | 0.01 to 0.1 µM | Cn1c(=O)n(C2CCC(=O)NC2=O)c2ccc(F)c(N3CCN(C[C@H]4CC[C@H](n5cc6cc(NC(=O)c7cccc(C#N)n7)ccc6n5)CC4)CC3)c21 (some centres unmarked) [I-686]
> 0.2 µM | < 0.01 µM | Cn1c(=O)n(C2CCC(=O)NC2=O)c2cccc(C3CCN(C[C@H]4CC[C@H](n5cc6cc(NC(=O)c7cccc(C#N)n7)ncc6n5)CC4)CC3F)c21 (some centres unmarked) [I-731]
> 0.2 µM | > 0.2 µM | Cn1c(NC(=O)c2cccc(C(F)(F)F)n2)cc2cn([C@H]3CC[C@H](CN4CCC(c5cccc6c5n(C)c(=O)n6C5CCC(=O)NC5=O)C(F)(F)C4)CC3)nc2c1=O (some centres unmarked) [I-771]
< 0.01 µM | > 0.2 µM | O=C1CCN(c2cncc3c(C4CCN(C5CCN(C[C@H]6CC[C@H](n7cc(NC(=O)c8cnn9ccc(N%10C[C@H]%11C[C@@H]%10CO%11)nc89)c(C(F)F)n7)CC6)CC5)CC4)cccc23)C(=O)N1 [I-74]
> 0.2 µM | > 0.2 µM | Cn1c(=O)n(C2CCC(=O)NC2=O)c2cccc(C#CCO[C@@H]3CCN(C[C@H]4CC[C@H](n5cc(NC(=O)c6cnn7ccc(N8CCS(=O)(=O)CC8)nc67)c(C(F)F)n5)CC4)C[C@H]3F)c21 (some centres unmarked) [I-590]
> 0.2 µM | > 0.2 µM | CC1CN(c2ccn3ncc(C(=O)Nc4cn([C@H]5CC[C@H](CN6CCN(CC#Cc7cccc8c7n(C)c(=O)n8C7CCC(=O)NC7=O)CC6)CC5)nc4C(F)F)c3n2)CC(C)O1 (some centres unmarked) [I-289]
0.01 to 0.1 µM | > 0.2 µM | Cn1c(=O)n(C2CCC(=O)NC2=O)c2cccc(C#CCOC3CCN(C[C@H]4CC[C@H](n5cc(NC(=O)c6cnn7ccc(N8CC9(CCCOC9)C8)nc67)c(C(F)F)n5)CC4)CC3)c21 (some centres unmarked) [I-328]
> 0.2 µM | > 0.2 µM | Cc1cccc(C(=O)Nc2cc3cn([C@H]4CC[C@H](CN5CC[C@H](c6cccc7c6n(C)c(=O)n7C6CCC(=O)NC6=O)[C@@H](F)C5)CC4)nc3cc2C(C)(C)O)n1 (some centres unmarked) [I-646]
> 0.2 µM | < 0.01 µM | Cn1c(=O)n(C2CCC(=O)NC2=O)c2cccc(C#CCN3CCN(C[C@H]4CC[C@H](n5cc(NC(=O)c6cnn7ccc(N8CCC(F)(F)CC8)nc67)c(C(F)F)n5)CC4)CC3)c21 (some centres unmarked) [I-434]
> 0.2 µM | > 0.2 µM | Cn1c(=O)n(C2CCC(=O)NC2=O)c2cccc(CC[C@@H]3CN(Cc4ccc(-n5cc(NC(=O)c6cnn7cccnc67)c(C(F)F)n5)cc4)CCO3)c21 (some centres unmarked) [I-398]
> 0.2 µM | < 0.01 µM | Cn1c(=O)n(C2CCC(=O)NC2=O)c2cccc(C3CCN(C[C@H]4CC[C@H](n5cc6cc(NC(=O)c7cccc(C#N)n7)ccc6n5)CC4)CC3(F)F)c21 (some centres unmarked) [I-716]
> 0.2 µM | > 0.2 µM | Cn1c(=O)n(C2CCC(=O)NC2=O)c2ccc(C3=CCN(C[C@H]4CC[C@H](n5cc6cc(NC(=O)c7cccc(C(F)(F)F)n7)ccc6n5)CC4)CC3(F)F)cc21 (some centres unmarked) [I-464]
